{"source": "patent US20140350111A1", "about": "“METHODS FOR TREATMENT AND PROPHYLAXIS AGAINST HEMORRHOIDS” (priority 2011, published 2014)", "key": {"[1]": {"settings": "one individual; 220 mg every day"}, "[2]": {"settings": "three individuals; 660 mg at first noticeable symptom, then 440 mg three times daily at six-hour intervals", "description": "After completing treatment in Example 1, three of the individuals at risk for hemorrhoids were treated at the onset of hemorrhoid symptoms to determine whether naproxen could halt or reverse the progression of the hemorrhoid symptoms."}}, "note": "Like-named read-outs stand apart in the source and are kept apart here.", "data": [{"smiles": "COc1ccc2cc([C@H](C)C(=O)O)ccc2c1", "note": "[naproxen sodium]", "values": [{"measurement": "hemorrhoid symptoms after treatment, as reported by individuals", "setting": "440 mg three times daily at six-hour intervals, the one remaining individual", "value": "significant improvement in symptoms"}, {"measurement": "hemorrhoid symptoms after treatment, as reported by individuals", "setting": "five individuals, 440 mg three times daily at six-hour intervals until symptoms abated, all treated individuals except one", "value": "complete lack of hemorrhoid symptoms after treatment"}, {"measurement": "occurrence of emerging hemorrhoid symptoms under prophylaxis", "setting": "[1]", "value": "has not experienced any emerging hemorrhoid symptoms"}, {"measurement": "progression of emerging hemorrhoid symptoms", "setting": "[2]", "value": "symptoms did not worsen"}, {"measurement": "time to complete disappearance of all symptoms of hemorrhoids from commencement of treatment", "setting": "[2]", "value": "12 to 24", "unit": "h"}]}]}
